One series has as its system human colon cancer. To be noted: Tanaka et al., 1995; cited from earlier work.
For series [1], the target named is MetAP-2 (Homo sapiens, UniProt P50579). To be noted: Griffith et al.; cited from earlier work.
Series [2] concerns MetAP-2. To be noted: several different cell types; Wang et al., 2000; cited from earlier work.
In a further series the test system is OVCA 429 cells. To be noted: for 429: increased sensitivity to cis-platin: OVCA 429 cells with specific siRNA.
The test system of another series is MetAP-2 messenger RNA. Kind of series: siRNA knockdown, quantitative real-time PCR. The following applies: OVCA 429 (FIG. 44).
In another series the test system is NM23-D (BC004880). The series is described as follows: siRNA-mediated knockdown of gene expression. To be noted: OVCA 429 cells. In kind it is cell-based, human.
The next series deals with OVCAR-3 cells. The series is described as follows: MTT assay, cis-platin sensitivity with siRNA. In kind it is cell-based, human. The following applies: OVCAR-3 cells with specific siRNA. For orientation: Formazan colour is commonly taken as a measure of viable cells.
The subject of another series is RNPS1 (AF015608). The series is described as follows: siRNA-mediated knockdown of gene expression. To be noted: ovarian cancer cell lines. In kind it is cell-based, human.
For a further series, the system named is S100A11 message. Kind of series: siRNA knockdown of gene expression. In kind it is cell-based, human. To be noted: OVCA 429 (FIG. 57).
The test system of the next series is SAPK/Erk1 (L36870). The series is described as follows: siRNA-mediated knockdown of gene expression. The following applies: ovarian cancer cell lines. In kind it is cell-based, human.
The test system of series [3] is SRB1/CLA1/CD3611 (BCO22087). The series is described as follows: siRNA-mediated knockdown of gene expression. In kind it is cell-based, human. The following applies: ovarian cancer cell lines.
In the next series the test system is WDR1 (AB010427). Kind of series: siRNA-mediated knockdown of gene expression. In kind it is cell-based, human. To be noted: OVCA 429 cells.
A further series has as its system eEF1ε (BC005291). The series is described as follows: siRNA-mediated knockdown of gene expression. In kind it is cell-based, human. To be noted: ovarian cancer cell lines.
The next series concerns e-IF2Bε (BC013590). Kind of series: siRNA-mediated knockdown of gene expression. In kind it is cell-based, human. To be noted: ovarian cancer cell lines.

Where two headings read alike, the source gives them in different places.

MetAP-2 (Homo sapiens, UniProt P50579), sequence (P50579 whole entry, species assumed): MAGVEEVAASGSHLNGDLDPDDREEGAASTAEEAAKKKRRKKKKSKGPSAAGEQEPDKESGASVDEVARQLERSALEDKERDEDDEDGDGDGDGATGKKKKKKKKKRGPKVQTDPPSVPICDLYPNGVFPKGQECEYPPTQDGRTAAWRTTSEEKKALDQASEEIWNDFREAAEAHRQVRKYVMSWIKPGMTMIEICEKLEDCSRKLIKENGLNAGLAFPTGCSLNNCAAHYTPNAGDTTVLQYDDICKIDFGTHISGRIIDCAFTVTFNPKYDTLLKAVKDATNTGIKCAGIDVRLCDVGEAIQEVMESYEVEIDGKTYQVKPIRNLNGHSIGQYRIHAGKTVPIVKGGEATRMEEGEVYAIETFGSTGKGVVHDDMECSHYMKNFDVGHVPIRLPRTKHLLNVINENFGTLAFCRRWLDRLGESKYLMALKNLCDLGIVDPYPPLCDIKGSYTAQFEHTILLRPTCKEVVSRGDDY
Description for MetAP-2 messenger RNA: The reaction mixture was then incubated at 42° C. for 60 minutes. cDNA dilutions from 1:4 to 1:256 were prepared. […] Green PCR Master Mix (Qiagen), 0.3 μM of forward primer, 0.3 μM of reverse primer, and RNase free water were added to a final volume of 45 μl.
Sequence detection was determined using the ABI Prism 7700 (Applied Biosystems, Inc., Foster City, Calif.) sequence detection system or the MJ Research (Waltham, Mass.) Opticon II system as follows: PCR initial activation step was carried out for 15 minutes at 95° C.; samples were denatured for 15 seconds at 94° C., annealed for 30 seconds at 53° C. (55° C. when the Opticon II system was used), and extended for 30 seconds at 72° C. (data was acquired during this step); the PCR reaction was repeated for 50 cycles. A melting curve analysis was prepared by adding on the following steps: 15 seconds at 95° C., 20 seconds at 60° C., and 20 seconds at 95° C.
The siRNA experiments described herein were conducted using the siPORT Lipid protocol (Ambion). […]
Cells were transfected with the siRNA constructs following instruction from the supplier (Ambion). […] The OD260 readings of siRNA were performed in duplicate at a 1:100 dilution. The readings were averaged, then multiplied by the dilution factor and then by multiplied by 40 (the OD260of 1 is equal to 40 μg/ml of RNA) to get the final concentration of siRNA in μg/ml. […]

Regarding `CO[C@@H]1[C@H](OC(=O)NC(=O)CCl)CC[C@]2(CO2)[C@H]1[C@@]1(C)O[C@@H]1CC=C(C)C` [TNP-470], the “hepatic metastasis of human colon cancer” value in the series on human colon cancer is “can be prevented”. In addition, the “inhibition of the methionine aminopeptidase activity of MetAP-2” value on MetAP-2 [1] was “covalently binds to and inhibits”.
Consider `CO[C@@H]1[C@H](OC(=O)/C=C/C=C/C=C/C=C/C(=O)O)CC[C@]2(CO2)[C@H]1[C@@]1(C)O[C@@H]1CC=C(C)C` [fumagillin], for which the “expression of MetAP-2 after treatment” value in the series with MetAP-2 [2] is listed as “increased expression of MetAP-2”. The “inhibition of the methionine aminopeptidase activity of MetAP-2” value at MetAP-2 [1] was “covalently binds to and inhibits”. Moreover, the “effect on the action of cis-platin” value in the series with OVCA 429 cells (OVCA 429, 0.1 μg/ml fumagillin, 4 hours) is “enhancement of the effect of cis-platin”; with OVCA 429 cells (OVCA 429, 0.1 μg/ml fumagillin, 8 hours), “enhancement of the effect of cis-platin”; in the series on OVCA 429 cells (OVCA 429, 0.1 μg/ml fumagillin, regardless of the length of incubation time (FIGS. 41 and 42)) it was “enhancement of the effect of cis-platin”; in the series with OVCA 429 cells (OVCA 429, 10 μg/ml fumagillin, regardless of the length of incubation time (FIGS. 41 and 42)), “opposite effect”. In addition, in the series with OVCA 429 cells (OVCA 429, very high concentrations of fumagillin, 4 hours (FIG. 40)), the “cell survival with fumagillin alone” value is on record as “up to 80%”.
Take “MetAP-2 siRNA #2: siRNA to MetAP-2; target sequence AAGCA CAT CGA CAA GTT AGA A (guide AAGCACATCGACAAGTTAGAA; target site or template, no part of the molecule; listed as DNA, chemistry not given here; listed as Homo Sapiens)”: in the series with MetAP-2 messenger RNA, the “levels of MetAP-2 expression” value was “did not result in a reduction”.
Turning to “MetAP-2 siRNA #3: siRNA to MetAP-2; target sequence AAACA GTG CCG ATT GTG AAA G (guide AAACAGTGCCGATTGTGAAAG; target site or template, no part of the molecule; listed as DNA, chemistry not given here; listed as Homo Sapiens)”, in the series with MetAP-2 messenger RNA, the “levels of MetAP-2 expression” value is recorded as “did not result in a reduction”.
On to “NM23D siRNA #3: siRNA to NM23-D; target sequence AATGTCATCCACGCCAGCGAC (guide AATGTCATCCACGCCAGCGAC; target site or template, no part of the molecule; listed as DNA, chemistry not given here; listed as Homo Sapiens)”, for which the “reduction of NM23-D mRNA levels compared to control” value in the series with NM23-D (BC004880) is listed as “approximately 50%”. Also, the “429: increased sensitivity to cis-platin” value in the series with OVCA 429 cells was “yes”. Also, the “OVCAR-3: increased sensitivity to cis-platin” value (“OVCAR-3: increased sensitivity” for short) in the series on OVCAR-3 cells was “yes”.
Take “RNPS1 siRNA #1: siRNA to RNPS1; target sequence AATATTCATACGGCATGGACT (guide SDNAATATTCATACGGCATGGACT; target site or template, no part of the molecule; listed as DNA, chemistry not given here; listed as Homo Sapiens)”: in the series on OVCA 429 cells, the “429: increased sensitivity to cis-platin” value is given as “yes”. Further, the “reduction in the level of RNPS1 mRNA” value in the series on RNPS1 (AF015608) worked out at 35%.
Take “S100A11 siRNA #1: siRNA to S100A11; AA AGG ATG GTT ATA ACT ACA C (guide AAAGGATGGTTATAACTACAC; target site or template, no part of the molecule; listed as DNA, chemistry not given here; listed as Homo Sapiens)”: the “knockdown of S100A11 gene expression levels” value in the series on S100A11 message is given as 50%.
The same measure, in the same setting: the value for “S100A11 siRNA #2: siRNA to S100A11; AA GAA ACT GGA CAC CAA CAG T (guide AAGAAACTGGACACCAACAGT; target site or template, no part of the molecule; listed as DNA, chemistry not given here; listed as Homo Sapiens)” was 25%.
For “SAPK/Erk1 siRNA #2: siRNA to SAPK/Erk1; target sequence AAGCGCATCACGACAAGGATA (guide AAGCGCATCACGACAAGGATA; target site or template, no part of the molecule; listed as DNA, chemistry not given here; listed as Homo Sapiens)”, the “429: increased sensitivity to cis-platin” value with OVCA 429 cells is “yes”. The “OVCAR-3: increased sensitivity” value in the series with OVCAR-3 cells is given as “yes”. Further, the “reduction in the level of SAPK mRNA” value in the series on SAPK/Erk1 (L36870) amounted to 60%.
In the case of “SRB1 siRNA #1: siRNA to SRB1; target sequence AAGCAGCAGGTCCTTAAGAAC (guide AAGCAGCAGGTCCTTAAGAAC; target site or template, no part of the molecule; listed as DNA, chemistry not given here; listed as Homo Sapiens)”, the “reduction in the level of SRB1 mRNA” value in series [3] is reported as 60%. Moreover, the “429: increased sensitivity to cis-platin” value in the series with OVCA 429 cells is listed as “yes”. Also, the “OVCAR-3: increased sensitivity” value in the series with OVCAR-3 cells was “yes”.
With “SRB1 siRNA #3: siRNA to SRB1; target sequence AATTCAGAACGTCAGCACCTG (guide AATTCAGAACGTCAGCACCTG; target site or template, no part of the molecule; listed as DNA, chemistry not given here; listed as Homo Sapiens)”, in series [3], the “reduction in the level of SRB1 mRNA” value was “successful in reducing the expression of SRB1”.
With “WDR1 siRNA #1: siRNA to WDR1; target sequence AATGGAAAGTGCGTCATCCTA (guide AATGGAAAGTGCGTCATCCTA; target site or template, no part of the molecule; listed as DNA, chemistry not given here; listed as Homo Sapiens)”, in the series on OVCA 429 cells, the “429: increased sensitivity to cis-platin” value is on record as “no”. Also, the “OVCAR-3: increased sensitivity” value in the series with OVCAR-3 cells is listed as “yes”. For the same molecule, the “reduction of WDR1 mRNA levels compared to control” value (“reduction of WDR1 mRNA levels” for short) in the series with WDR1 (AB010427) is on record as “approximately 85%”.
As to “WDR1 siRNA #2: siRNA to WDR1; target sequence AAGTTCACAATTGGCGACCAC (guide AAGTTCACAATTGGCGACCAC; target site or template, no part of the molecule; listed as DNA, chemistry not given here; listed as Homo Sapiens)”, the “reduction of WDR1 mRNA levels” value with WDR1 (AB010427) was “approximately 75%”.
As for “WDR1 siRNA #3: siRNA to WDR1; target sequence AAGTGCTTCAGCATCGACAAC (guide AAGTGCTTCAGCATCGACAAC; target site or template, no part of the molecule; listed as DNA, chemistry not given here; listed as Homo Sapiens)”, the “reduction of WDR1 mRNA levels” value with WDR1 (AB010427) is on record as “approximately 70%”.
Consider “eEF1ε siRNA #1: siRNA to eEF1ε; target sequence AACAGGATTGACTACTATAGC (guide AACAGGATTGACTACTATAGC; target site or template, no part of the molecule; listed as DNA, chemistry not given here; listed as Homo Sapiens)”, for which, in the series with eEF1ε (BC005291), the “reduction in the level of eEF1ε mRNA” value was 65%.
Turning to “eEF1ε siRNA #2: siRNA to eEF1ε; target sequence AATACAGGGTCACTCAAGTAG (guide AATACAGGGTCACTCAAGTAG; target site or template, no part of the molecule; listed as DNA, chemistry not given here; listed as Homo Sapiens)”, the “reduction in the level of eEF1ε mRNA” value with eEF1ε (BC005291) is recorded as “successful in reducing the expression of eEF1ε”.
“eIF2Bε siRNA #1: siRNA to e-IF2Bε; target sequence AATGTGGTTCGAATAATTACA (guide AATGTGGTTCGAATAATTACA; target site or template, no part of the molecule; listed as DNA, chemistry not given here; listed as Homo Sapiens)”: the “reduction in the level of e-IF2Bε mRNA” value in the series with e-IF2Bε (BC013590) stood at 57%. The “429: increased sensitivity to cis-platin” value in the series on OVCA 429 cells was “yes”. Further, in the series with OVCAR-3 cells, the “OVCAR-3: increased sensitivity” value is “yes”.
Regarding “eIF2Bε siRNA #2: siRNA to e-IF2Bε; target sequence AAACTCGAGATGACTTTGTGC (guide AAACTCGAGATGACTTTGTGC; target site or template, no part of the molecule; listed as DNA, chemistry not given here; listed as Homo Sapiens)”, the “reduction in the level of e-IF2Bε mRNA” value in the series with e-IF2Bε (BC013590) came out at 54%.
As for “eIF2Bε siRNA #3: siRNA to e-IF2Bε; target sequence AATCAACAGCTGCAGAGGTTC (guide AATCAACAGCTGCAGAGGTTC; target site or template, no part of the molecule; listed as DNA, chemistry not given here; listed as Homo Sapiens)”, the “reduction in the level of e-IF2Bε mRNA” value in the series with e-IF2Bε (BC013590) is reported as 43%.

The values are drawn from US8192935B2, “Methods for assessing cisplatin resistance, disease progression, and treatment efficacy in ovarian cancer as related to MetAP2 expression” (The Penn State Research Foundation, priority 2003, dated 2012).
